Assay [1] addresses T1, His tagged full-length PTP1B protein (Homo sapiens, UniProt P18031).
T1 construct: made in house
T1 sequence (P18031 with tags, fused parts or gaps): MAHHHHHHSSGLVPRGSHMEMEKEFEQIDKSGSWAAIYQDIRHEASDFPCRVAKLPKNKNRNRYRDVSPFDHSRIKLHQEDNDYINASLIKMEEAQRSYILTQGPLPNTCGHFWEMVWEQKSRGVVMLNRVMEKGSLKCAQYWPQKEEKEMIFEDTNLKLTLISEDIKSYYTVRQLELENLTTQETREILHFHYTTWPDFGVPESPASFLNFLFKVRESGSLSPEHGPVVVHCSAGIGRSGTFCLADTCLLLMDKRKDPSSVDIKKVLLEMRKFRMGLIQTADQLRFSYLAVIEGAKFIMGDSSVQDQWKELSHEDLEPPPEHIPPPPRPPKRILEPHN
In words: Mobility shift assay (MSA) for potency of PTP1B inhibitors. It counts as biochemical. On the procedure: The enzymatic assay used to determine activity is a mobility shift assay using a LabChip EZ Reader by Caliper Life Sciences. The enzymatic reaction was carried out in assay buffer (50 mM HEPES pH 7.5, 1 mM EGTA, 10 mM EDTA, 0.01% Tween® 20, and 2 mM DTT). […] The enzyme (at 0.5 nM) was incubated with compound for 10 minutes at room temperature. […] The % inhibition was then used to calculate the IC50 values.

Assay [2] deals with T2, His tagged PTPN2 (TC45) protein (Homo sapiens, UniProt P17706).
T2 construct: made in house
T2 sequence (P17706 with tags, fused parts or gaps isoform P17706-2): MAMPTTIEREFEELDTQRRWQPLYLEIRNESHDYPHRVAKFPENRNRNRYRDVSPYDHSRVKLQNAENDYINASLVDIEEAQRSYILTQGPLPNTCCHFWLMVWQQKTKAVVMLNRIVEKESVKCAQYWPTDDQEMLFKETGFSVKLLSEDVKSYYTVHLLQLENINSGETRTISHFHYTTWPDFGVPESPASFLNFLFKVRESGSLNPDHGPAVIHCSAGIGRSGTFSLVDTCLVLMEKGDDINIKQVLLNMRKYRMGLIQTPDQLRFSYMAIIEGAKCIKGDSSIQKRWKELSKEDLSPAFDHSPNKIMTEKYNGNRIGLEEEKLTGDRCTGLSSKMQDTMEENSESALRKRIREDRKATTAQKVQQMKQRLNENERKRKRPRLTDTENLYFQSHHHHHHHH
Nature of the assay: Mobility shift assay (MSA) for potency of PTPN2 inhibitors. The format is biochemical. The conditions noted are these: read-out: PTPN2 MSA IC50. The procedure, abridged:
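His-tagged PTPN2 TC45 (0.5 nM) was preincubated with compound (12-point, 1:3) for 10 min at room temperature in 50 mM HEPES pH 7.5, 1 mM EGTA, 10 mM EDTA, 0.01% Tween 20, 2 mM DTT. OG488-labelled phospho-insulin-receptor peptide ([…]) was then added for 10 min. After quenching, dephosphorylation was measured by microfluidic mobility shift and IC50 derived from % inhibition.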

In assay [3] the test system is B16F10 mouse melanoma cells. Nature of the assay: B16F10 IFNγ-induced cellular growth inhibition assay. It counts as cell-based. The conditions noted are these: Mus musculus, B16-F10, 33 μM compound. The method in brief: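 B16F10 cells (500/well, DMEM + 10% FBS) dosed in triplicate at 100 μM to 0.001 μM (0.1% DMSO) with or without 0.5 ng/mL final mouse IFNγ. Confluence imaged every 6 h for 5 days; % growth inhibition calculated versus DMSO/with-IFNγ control once DMSO/no-IFNγ wells exceeded 95% confluence.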

[4] abbreviates: +0.5 ng/mL IFNγ, relative to DMSO control, read-out: % B16F10 growth inhibition (+0.5 ng/mL IFNγ) @ 33 μM.
Where [5] appears, read: no IFNγ, read-out: % B16F10 growth inhibition (no IFNγ) @ 33 μM.

This note sets out measurements from patent US20210009542A1 (Calico Life Sciences LLC, priority 2018, published 2021).

Read-outs that look alike come from different tables or passages of the source.

Regarding `CC(C)S(=O)(=O)N1CCC(c2ccc3cc(O)c(N4CC(=O)NS4(=O)=O)c(F)c3c2)C1` (stereo not drawn) [Compound 308, 5-{1-fluoro-3-hydroxy-7-[1-(propane-2-sulfonyl)pyrrolidin-3-yl]naphthalen-2-yl}-1λ^6,2,5-thiadiazolidine-1,1,3-trione], the results for the IC50 in assay [1] and in assay [2] were 0.001 to 0.01 µM and less than 0.001 µM, respectively.
As to `O=C1CN(c2c(O)cc3ccc(C4=CCN(S(=O)(=O)CC5CCCCO5)C4)cc3c2F)S(=O)(=O)N1` (stereo not drawn) [Compound 289, 5-(1-fluoro-3-hydroxy-7-{1-[(oxan-2-yl)methanesulfonyl]-2,5-dihydro-1H-pyrrol-3-yl}naphthalen-2-yl)-1λ^6,2,5-thiadiazolidine-1,1,3-trione], the IC50 in assay [1] and in assay [2] was less than 0.001 µM each time.
Consider `O=C1CN(c2c(O)cc3ccc(C(CO)CCl)cc3c2F)S(=O)(=O)N1` (stereo not drawn) [Compound 221, 5-[7-(1-chloro-3-hydroxypropan-2-yl)-1-fluoro-3-hydroxynaphthalen-2-yl]-1λ^6,2,5-thiadiazolidine-1,1,3-trione], for which the IC50 in assay [1] is more than 0.1 µM; in assay [2] it was 0.01 to 0.1 µM.
The matching figures for `O=C1CN(c2c(O)cc3ccc([C@@H]4CCNC4)cc3c2F)S(=O)(=O)N1` (single isomer, unassigned) [Compound 232]: 0.01 to 0.1 µM and 0.001 to 0.01 µM.
The matching figures for `O=C1CN(c2c(O)cc3ccc(C4=CCN(S(=O)(=O)C5CCOC5)C4)cc3c2F)S(=O)(=O)N1` (stereo not drawn) [Compound 285, 5-{1-fluoro-3-hydroxy-7-[1-(oxolane-3-sulfonyl)-2,5-dihydro-1H-pyrrol-3-yl]naphthalen-2-yl}-1λ^6,2,5-thiadiazolidine-1,1,3-trione]: 0.001 to 0.01 µM and less than 0.001 µM.
On the same counts, the results for `CC(C)(C)CC1CCN(c2ccc3cc(O)c(N4CC(=O)NS4(=O)=O)c(F)c3c2)C1` (stereo not drawn) [Compound 220, 5-{7-[3-(2,2-dimethylpropyl)pyrrolidin-1-yl]-1-fluoro-3-hydroxynaphthalen-2-yl}-1λ^6,2,5-thiadiazolidine-1,1,3-trione] are more than 0.1 µM and 0.01 to 0.1 µM.
Turning to `O=C1CN(c2c(O)cc3ccc(CC4CCNC4)cc3c2F)S(=O)(=O)N1` (stereo not drawn) [Compound 262, 5-{1-fluoro-3-hydroxy-7-[(pyrrolidin-3-yl)methyl]naphthalen-2-yl}-1λ^6,2,5-thiadiazolidine-1,1,3-trione], the half-inhibitory concentration (IC50) in assay [1] was 0.01 to 0.1 µM; in assay [2], 0.001 to 0.01 µM.
The matching figures for `O=C1CN(c2c(O)cc3ccc(OC(CO)CCl)cc3c2F)S(=O)(=O)N1` (stereo not drawn) [Compound 272, 5-{7-[(1-chloro-3-hydroxypropan-2-yl)oxy]-1-fluoro-3-hydroxynaphthalen-2-yl}-1λ^6,2,5-thiadiazolidine-1,1,3-trione]: 0.01 to 0.1 µM and 0.001 to 0.01 µM.
Turning to `O=C1CN(c2c(O)cc3ccc(C4=CCN(S(=O)(=O)CC5COCCO5)C4)cc3c2F)S(=O)(=O)N1` (stereo not drawn) [Compound 292, 5-(7-{1-[(1,4-dioxan-2-yl)methanesulfonyl]-2,5-dihydro-1H-pyrrol-3-yl}-1-fluoro-3-hydroxynaphthalen-2-yl)-1λ^6,2,5-thiadiazolidine-1,1,3-trione], the IC50 in assay [1] and in assay [2] was less than 0.001 µM each time.
For the compound `O=C1CN(c2c(O)cc3ccc(C4CCCN4S(=O)(=O)C4CC4)cc3c2F)S(=O)(=O)N1` (stereo not drawn) [Compound 189, 5-{7-[1-(cyclopropanesulfonyl)pyrrolidin-2-yl]-1-fluoro-3-hydroxynaphthalen-2-yl}-1λ^6,2,5-thiadiazolidine-1,1,3-trione], the IC50 in assay [1] is 0.01 to 0.1 µM; in assay [2], 0.001 to 0.01 µM.
For the compound `CC(COc1ccc2cc(O)c(N3CC(=O)NS3(=O)=O)c(F)c2c1)C1CC1` (stereo not drawn) [Compound 171, 5-[7-(2-cyclopropylpropoxy)-1-fluoro-3-hydroxynaphthalen-2-yl]-1λ^6,2,5-thiadiazolidine-1,1,3-trione], the IC50 in assay [1] was 0.01 to 0.1 µM; in assay [2], less than 0.001 µM.
The matching figures for `O=C1CN(c2c(O)cc3ccc(C4CCN(CC5CC5)C4)cc3c2F)S(=O)(=O)N1` (stereo not drawn) [Compound 222, 5-{7-[1-(cyclopropylmethyl)pyrrolidin-3-yl]-1-fluoro-3-hydroxynaphthalen-2-yl}-1λ^6,2,5-thiadiazolidine-1,1,3-trione]: 0.01 to 0.1 µM and more than 0.1 µM.
On the same counts, the results for `O=C1CN(c2c(O)cc3ccc(C4CCCN4)cc3c2F)S(=O)(=O)N1` (stereo not drawn) [Compound 258, 5-[1-fluoro-3-hydroxy-7-(pyrrolidin-2-yl)naphthalen-2-yl]-1λ^6,2,5-thiadiazolidine-1,1,3-trione] are 0.01 to 0.1 µM and 0.001 to 0.01 µM.
On the same counts, the results for `CCCC(C)S(=O)(=O)N1CC=C(c2ccc3cc(O)c(N4CC(=O)NS4(=O)=O)c(F)c3c2)C1` (stereo not drawn) [Compound 294, 5-{1-fluoro-3-hydroxy-7-[1-(pentane-2-sulfonyl)-2,5-dihydro-1H-pyrrol-3-yl]naphthalen-2-yl}-1λ^6,2,5-thiadiazolidine-1,1,3-trione] are less than 0.001 µM and less than 0.001 µM.
With `CCCS(=O)(=O)N1CC=C(c2ccc3cc(O)c(N4CC(=O)NS4(=O)=O)c(F)c3c2)C1` [Compound 288], the IC50 in assay [1] and in assay [2] was less than 0.001 µM in each case.
Take `O=C1CN(c2c(O)cc3ccc(OCC4CC(F)(F)C4)cc3c2F)S(=O)(=O)N1` [Compound 235, 5-{7-[(3,3-difluorocyclobutyl)methoxy]-1-fluoro-3-hydroxynaphthalen-2-yl}-1λ^6,2,5-thiadiazolidine-1,1,3-trione]: the inhibition at 33 µM in assay [3] (setting [4]) was 60 to 90%; in assay [3] (setting [5]), less than 25%. Further, in assay [2], the concentration for half-maximal inhibition (IC50) was 0.001 to 0.01 µM.
Take `COC(C)(C)CCOc1ccc2cc(O)c(N3CC(=O)NS3(=O)=O)c(F)c2c1` [Compound 170, 5-[1-fluoro-3-hydroxy-7-(3-methoxy-3-methylbutoxy)naphthalen-2-yl]-1λ^6,2,5-thiadiazolidine-1,1,3-trione]: the inhibition at 33 µM was 60 to 90% in assay [3] (setting [4]) and less than 25% in assay [3] (setting [5]). Besides, the IC50 in assay [2] is less than 0.001 µM.
On the same counts, the results for `O=C1CN(c2c(O)cc3ccc(C4CN(C(=O)C5CC5)C4)cc3c2F)S(=O)(=O)N1` [Compound 207, 5-{7-[1-(cyclopropanecarbonyl)azetidin-3-yl]-1-fluoro-3-hydroxynaphthalen-2-yl}-1λ^6,2,5-thiadiazolidine-1,1,3-trione] are 25 to 59%, less than 25% and 0.001 to 0.01 µM.
On the same counts, the results for `O=C1CN(c2c(O)cc3ccc(OC4CC4)cc3c2F)S(=O)(=O)N1` [Compound 223, 5-[7-(cyclopropyloxy)-1-fluoro-3-hydroxynaphthalen-2-yl]-1λ^6,2,5-thiadiazolidine-1,1,3-trione] are 60 to 90%, less than 25% and 0.001 to 0.01 µM.
The matching figures for `[2H]c1c(O)c(N2C([2H])([2H])C(=O)NS2(=O)=O)c(F)c2cc(OC)ccc12` [Compound 106, 5-[1-fluoro-3-hydroxy-7-methoxy(4-^2H)naphthalen-2-yl](4,4-^2H2)-1λ^6,2,5-thiadiazolidine-1,1,3-trione]: 60 to 90%, less than 25% and 0.001 to 0.01 µM.
